Experimental data from a melting point compilation (Tetko et al.; mined from patent text by program, amines drawn as free bases though some values may be those of a salt).

SMILES	melting point [°C]
O=C(Cc1ccc(Oc2ccc(C(F)(F)F)cn2)cc1)Nc1ccncc1	167 to 170
C=CC(C)(C)CC(NC(=O)c1ccc(Cl)cc1)NC(=NC#N)Nc1cccnc1 (stereo unspecified)	171 to 172
CCOCc1cc2c(s1)CCCc1cc(=O)n(-c3ccc(C)cc3)nc1-2	92 to 93
CC(C)(C)c1cc(CCc2ccccc2NC(=O)NC2CCN(CCc3ccc(F)cc3)CC2)cc(C(C)(C)C)c1O	117 to 119
COC(=O)NC(=O)Nc1nc2ccccc2s1	338 to 340
CC(=O)OCC(=O)c1ccc(F)cc1F	54 to 56
CC(C)(C)C(O)CN1CCC(CCC(=O)c2cc(Cl)c(N)[nH]c2=O)CC1 (stereo unspecified)	211
O=C(Nc1cccc(Cl)c1)C1C(=O)Sc2ccc(Cl)cc21 (stereo unspecified)	160 to 163
Cc1cc2c(cc1Br)C(O)(c1ccccn1)CC(C)(C)CO2 (stereo unspecified)	147
CC[C@H](C)[C@H](NC(=O)O[C@@H](CC(C)C)C(=O)O)C(N)=O	170 to 175
Cc1nc(C)n(-c2cc([C@@H]3C[C@H]3c3nc4ccccc4n3C)nc(C(N)=O)n2)n1 (relative stereo)	119 to 121
CC(CCC(=O)NC(C)(C)CO)C1CCC2C3C(=O)CC4CC(O)CCC4(C)C3CCC12C (stereo unspecified)	220 to 222
CCCCCCCCCCCCCCCCNc1ccc(C(=O)NS(=O)(=O)c2ccc(C(C)(C)C)cc2)cc1	173 to 176
CN1C(=O)C(Br)=C(c2cn(S(=O)(=O)c3ccccc3)c3ncccc23)C1=O	198
COc1ccc(C(C)C)cc1-c1cc(-c2nnnn2CCc2ccccc2)c(OCc2ccccc2)cc1OCc1ccccc1	118 to 120
CN(C)c1cc(N2C(=O)N3CCCC3(Cc3ccc(Br)cc3)C2=O)cc(Cl)n1 (stereo unspecified)	194
O=C(c1ccccc1)c1ccc(-c2ccc(-c3ccc(Cl)cc3)s2)s1	165 to 175
NC(=O)NC1CCC(O)c2ccccc21 (stereo unspecified)	170 to 176
Cn1ccc(OC2c3cc(C#N)ccc3OC(C)(C)C2O)cc1=O (stereo unspecified)	202 to 203
Nc1cc2nc(N)c(-c3ccccc3Cl)cc2cn1	175
CCOC(=O)c1cnc2nc(OCC)ccc2c1O	175 to 179
O=C1c2ccccc2C(=O)N1CC(=O)N1c2ccccc2N(Cc2ccccc2F)C(=O)[C@H]2CCC[C@H]21 (relative stereo)	250 to 253
CC(=O)c1ccc2cc(N3CCN(C(=O)OC(C)(C)C)CC3)ccc2c1	153 to 154
CCOC(=O)Nc1nc(Cc2ccccc2)c(C(=O)c2sc(NC(=O)OCC)nc2Cc2ccccc2)s1	145 to 146

SMILES	melting point [°C]
CCOC(=O)C1=C(C)Nc2ccccc2N(C)C1c1cccc([N+](=O)[O-])c1 (stereo unspecified)	113 to 116
CNC(=O)CCCCCc1cccc2cncn12	118 to 122
CCON=C(C(C)=NOCc1ccccc1C(=COC)C(=O)OC)c1ccc(Oc2ccc(Cl)cc2)cc1	87 to 89
Oc1ccc(C2COc3cc4c(cc3C2)OCO4)cc1 (stereo unspecified)	139 to 140
O=S1(=O)NC(C2CC2)Nc2ccc(S(=O)(=O)N3CCCCC3)cc21 (stereo unspecified)	228 to 231
CCOC(=O)c1c[nH]nc1OC(C)C	55 to 56
CC=CC(=O)Nc1n[nH]c2cc(Cl)ccc12	226
CS(=O)(=O)Nc1ccc(Cn2c(=S)n(Cc3ccc(OC(F)(F)F)cc3)c3ccccc32)cc1	167 to 170
CC(=C1SC(=O)NC1=O)c1ccc(OCCOc2c(-c3ccc(F)c(F)c3)n(C)c3cc(F)ccc3c2=O)cc1	270 to 272
O=C1c2ccccc2C(=O)N1Nc1ccc(Br)cc1	205 to 206
Fc1cccc(-c2ncc(-c3cnc(-c4ccccc4)[nH]3)cn2)c1	240
O=C(N[C@@H](Cc1ccccc1)[C@H]1CO1)OCc1ccccc1	102 to 103
COc1cc(OC)c(F)c(N2Cc3cnc(SC)nc3N(C3CC3)C2=O)c1F	173 to 176
O=C(O)CC1CCC(CCNS(=O)(=O)c2ccc(Br)cc2)CC1 (stereo unspecified)	124 to 126
C[C@@H](NC(=O)c1ccc(-c2csnn2)cc1)[C@](O)(Cn1cncn1)c1ccc(F)cc1F	196 to 198
COC(=O)C(C)(C)C(Cc1ccccc1)NCc1ccccc1 (stereo unspecified)	92 to 94
O=C(CC(=O)C1CC1)c1cccnn1	85 to 87
COc1ccc(Nc2ncc3cc(-c4c(Cl)cccc4Cl)c(=O)n(C)c3n2)cn1	233 to 235
CCOC(CN1C(=O)C2=C(c3cccs3)N(CC(OCC)OCC)C(=O)C2=C1c1cccs1)OCC	167 to 169
CN(Cc1cc2c3c(c1)c(=O)c(C(=O)NCc1ccc(F)cc1)cn3CC(=O)N2C)C[C@@H](O)c1cccnc1	108 to 110
Cc1nc2cc(NC(=O)c3cc4cc(F)ccc4n3Cc3cccc(F)c3)ccn2c1C	251 to 253
CC(C)Nc1cccnc1N1CCN(C(=O)c2ccc(C(=O)N3CCN(CCCO)CC3)cc2)CC1	129
Cc1cc(C)cc(Sc2c(C(C)C)c(=O)[nH]c(=O)n2CCC2C=CCC2)c1 (stereo unspecified)	138 to 140
COc1ccc2ccccc2c1CCCC(=O)O	88

SMILES	melting point [°C]
COc1ccc(S(=O)(=O)C2(C(=O)NO)CCN(CCOc3ccccc3)CC2)cc1	168 to 172
Nc1ccc(OC(F)F)cc1[N+](=O)[O-]	68 to 70
CC(C)N(O)C(=O)Nc1cccc(S(C)(=O)=O)c1	168 to 169
CCOP(=O)(CC(=O)Nc1cc2c(Nc3ccc(F)c(Cl)c3)ncnc2cc1OCC1CC1)OCC	185 to 187
CC(=O)SCC(C)C1CCC2C3CCC4=C(N)C(=O)CCC4(C)C3CCC12C (stereo unspecified)	173 to 176
Cc1nn(C)c2c1c1oc(=O)c(Sc3ccccc3)c(O)c1c(=O)n2-c1ccc(OC(F)(F)F)cc1	136 to 139
CC(C)(C)c1ccc(C2(Cl)CN(C(c3ccccc3)c3ccccc3)C2)cc1	145
Cn1cc(C2=C(c3cn(CCCOS(C)(=O)=O)c4ccccc34)C(=O)NC2=O)c2ccccc21	202 to 204
O=[N+]([O-])c1ccc(Cl)c(C=Cc2nc3ccccc3s2)c1	188 to 189
Cc1ccc(Cl)cc1NC(=S)NCC(N)=O	162 to 164
COc1ccc(N)c(C(=O)CS(=O)(=O)N(C)C)c1	198 to 200
O=C(NCCCCn1ccnc1)c1ccco1	88 to 90
COC(=O)NC(=N)CC(C)C	82 to 86
CCSc1nnc(CO)n1Cc1ccc(N)cc1	145 to 147
CCC(=O)Nc1nc(N2CCC(c3c[nH]c4ccc(NC(C)=O)cc34)CC2)cs1	263 to 267
Cc1cc(CNC(=O)c2cc(-c3ccc(C(C)(C)C)cc3)[nH]n2)ccc1OC(C)(C)C(=O)O	100
CCOC(=O)c1ccc(OCCC2CN(c3nnc(Br)s3)CCO2)cc1 (stereo unspecified)	131
CCNC(=O)Cn1c(=O)c(=O)[nH]c2ccc3ccc(-n4c(C)ccc4C)cc3c21	> 285
c1ccc(-c2nc(COc3cccc(CCCn4ccnc4)c3)co2)cc1	62 to 63
O=C(CBr)N[C@H](CO)Cc1ccccc1	83 to 85
COc1cc(OC)cc(-c2ncn(-c3ccc(C(F)(F)F)cc3)c2-c2ccc(OC)c(O)c2)c1	111 to 113
CCCCOCc1cc2ccccc2oc1=O	69 to 70
CCN(CC)c1ccc(C2(c3ccc(N(CC)CC)cc3N(CC)CC)OC(=O)c3c(Cl)c(Cl)c(Cl)c(Cl)c32)cc1 (stereo unspecified)	196 to 197
O=c1[nH]c2cccnc2n1CCCO	145 to 148

SMILES	melting point [°C]
O=S1(=O)CCN(Cc2ccc(Br)cn2)CC1	129 to 131
Cc1scc2c1N(C(=O)CN1CCCCC1CN(C)C)c1ccccc1NC2=O (stereo unspecified)	172 to 173
Cc1nc(Sc2cc(C(=O)O)c3ccccc3n2)sc1CC(=O)O	206 to 208
COc1ccc(C(=O)N2c3ccccc3C(n3c4ccccc4c4ccccc43)CC2CCCCCOc2ccc(F)cc2)cc1OC (stereo unspecified)	157 to 159
COC(=O)CNC(=O)C(CS)NC(=O)CNC(=O)CS (stereo unspecified)	149 to 151
CCOC(=O)C1=C(C)NC2=C(C(=O)OC2)C1c1cccs1 (stereo unspecified)	232
CCOC(=O)c1c(Cn2cnnc2)nc2sc(C)c(C)c2c1-c1ccc(Cl)cc1	138 to 139
COc1ccccc1NC(=O)Nc1ccc(N2CCN(C(=O)Nc3ccc(OCCO)cc3C(F)(F)F)CC2)cc1	118 to 120
CCCCCCCCOC(=O)Nc1c2c(nc3ccccc13)CCCC2	96 to 99
CCCCCCCCCCCCCCOc1ccc(CC(=O)Cl)cc1OC	56 to 57
O=C(O)COc1ccc(SCc2ccc(OCc3ccc(Cl)c(C(F)(F)F)c3)cc2)c2c1CCC2	151 to 152
COc1ccc(N)cc1C(=O)NCc1ccc(C(F)(F)F)cc1	115 to 117
CC(C)n1nc(-c2sc(N(C)C)nc2-c2ccccc2)ccc1=O	158 to 160
COc1ccc(-n2ncc(C(=O)N[C@H](C)[C@](O)(Cn3cncn3)c3ccc(F)cc3F)c2C)cc1	176 to 177
CCC1CC2=CCCCC2C2CCC3(C)C(O)CCC3C12 (stereo unspecified)	155 to 157
Cc1ccc(S(=O)(=O)N2CCC(c3ccc4c(c3)C(=O)CCCC4)CC2)cc1	165 to 169
CC(=O)OC1CSC(Oc2cccc(-c3ccsc3)c2)C(OC(C)=O)C1OC(C)=O (stereo unspecified)	111
Cc1ccc(/C=C/C2=CCN(Cc3nc4ccccc4[nH]3)CC2)o1	191 to 193
COC(=O)CC(=O)CC(O)/C=C/C1=C(c2ccc(F)cc2)C=C(c2ccc(F)cc2)CC12CCCC2 (stereo unspecified)	96 to 99
O=C1CC(/C=C/c2ccccc2)=Nc2ccccc2N1Cc1ccccc1	150 to 151
COC(=O)c1sc(-c2ccc(F)cc2)cc1-c1nnn(C)n1	132
CCOC(=O)c1ccc(NCCCc2ccc(OCc3ccccc3)cc2)cc1	98 to 107
Nc1ccc(S(=O)(=O)C[N+](=O)[O-])cc1	132 to 133
Cc1c2n(c3ccccc13)C(=O)N(Cc1ncn(C(c3ccccc3)(c3ccccc3)c3ccccc3)c1C)CC2	210 to 220
